Like-named read-outs stand apart in the source and are kept apart here.
Biological target: T1, TLR9 (Homo sapiens, UniProt Q9NR96)
T1 construct: expressed in transfected cells; host or cells: HEK293
T1 sequence (Q9NR96 26-1032): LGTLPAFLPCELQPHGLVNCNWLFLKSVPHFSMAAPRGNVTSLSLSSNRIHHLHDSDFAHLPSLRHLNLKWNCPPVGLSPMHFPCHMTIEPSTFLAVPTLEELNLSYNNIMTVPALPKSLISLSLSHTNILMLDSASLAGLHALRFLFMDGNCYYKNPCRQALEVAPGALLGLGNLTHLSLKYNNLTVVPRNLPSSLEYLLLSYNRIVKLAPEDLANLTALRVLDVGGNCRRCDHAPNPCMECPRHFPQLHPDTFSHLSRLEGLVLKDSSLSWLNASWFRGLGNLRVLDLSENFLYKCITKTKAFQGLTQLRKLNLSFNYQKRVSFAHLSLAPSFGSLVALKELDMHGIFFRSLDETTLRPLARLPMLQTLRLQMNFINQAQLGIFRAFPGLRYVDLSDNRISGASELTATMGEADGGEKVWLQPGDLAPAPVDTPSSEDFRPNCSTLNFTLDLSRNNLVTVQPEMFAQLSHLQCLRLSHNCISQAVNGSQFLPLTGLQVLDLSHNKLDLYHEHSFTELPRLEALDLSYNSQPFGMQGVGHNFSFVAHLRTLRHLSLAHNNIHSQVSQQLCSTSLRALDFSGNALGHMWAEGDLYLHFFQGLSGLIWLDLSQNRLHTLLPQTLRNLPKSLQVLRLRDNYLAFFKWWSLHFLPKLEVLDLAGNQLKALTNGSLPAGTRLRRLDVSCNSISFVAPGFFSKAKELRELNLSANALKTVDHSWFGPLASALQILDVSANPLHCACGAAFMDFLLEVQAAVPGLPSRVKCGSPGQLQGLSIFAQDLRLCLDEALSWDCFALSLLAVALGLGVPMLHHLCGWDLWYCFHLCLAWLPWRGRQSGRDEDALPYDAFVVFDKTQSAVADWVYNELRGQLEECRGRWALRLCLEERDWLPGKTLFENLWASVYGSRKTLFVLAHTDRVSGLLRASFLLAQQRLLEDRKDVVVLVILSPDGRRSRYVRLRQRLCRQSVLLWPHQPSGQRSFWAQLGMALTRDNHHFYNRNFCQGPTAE
Assay: TLR9 screening of (+)-morphinan library, SEAP reporter in HEK293 cells expressing TLR9
Type: cell-based
Conditions: activator ODN2006; for OD 650 nm (mean ± sd): control (no activator) 0.14, activator 1.42 OD
Description: The secreted alkaline phosphatase reporter is under the control of a promoter inducible by the transcription factor NF-κB. A library of more than 100 (+)-morphinan compounds was screened for TLR9 antagonist activity by assessing NF-κB activation in the HEK293 cells expressing TLR9. This reporter gene allows the monitoring of signaling through the TLR, based on the activation of NF-κB.
In a 96-well plate (200 μL total volume) containing 50,000 cells/well, 20 μL of each sample compound was added to wells, in triplicate, followed by a 30 minute incubation at 37° C. and 5% CO2. After the 30 minutes of incubation, 20 μL of the activator ODN2006 was added to each well. The media added to the wells was designed for the detection of NF-κB induced SEAP expression. After a 16-20 hr incubation period, the OD at 650 nm was read on a Beckman Coulter AD 340C Absorbance Detector. All compounds were tested at concentrations of 10 μM and 100 nM.

[1] = HEK293, read-out: % Inhibition (mean), 100 nM
[2] = HEK293, read-out: % Inhibition (mean), 10 μM

SMILES	OD 650 nm (mean ± sd) (100 nM)	OD 650 nm (mean ± sd) (10 μM)	inhibition at 0.1 µM [1]	inhibition at 10 µM [2]	% Inhibition (mean) (100 nM, 0.1 µM)	% Inhibition (mean) (10 μM)	inhibition at 0.1 µM (HEK293, 100 nM, read-out: % Inhibition (mean))	inhibition at 10 µM (HEK293, 10 μM, read-out: % Inhibition (mean))
COc1ccc2c3c1O[C@@H]1C(=O)CC[C@]4(O)[C@H](C2)N(C)CC[C@@]314 [II-39]	1.23 ± 0.03 OD	1.06 ± 0.06 OD	14%	25%	–	–	–	–
COc1cc(Br)c2c3c1O[C@@H]1C(=O)CCC4C(C2)N(CC2CC2)CC[C@]341 (stereo partly drawn) [II-23]	1.16 ± 0.01 OD	0.53 ± 0.05 OD	18%	63%	–	–	–	–
C=CCN1CC[C@@]23c4c5ccc(OC)c4OC2C(OC(C)=O)CC[C@@H]3C1C5 (single isomer, unassigned) [II-94b]	1.17 ± 0.03 OD	1.30 ± 0.05 OD	–	–	17%	8%	–	–
COc1ccc2c3c1O[C@@H]1C(O)CC[C@]4(O)[C@H](C2)N(CC2CC2)CC[C@@]314 (single isomer, unassigned) [II-53b]	1.41 ± 0.09 OD	1.00 ± 0.03 OD	–	–	1%	29%	–	–
COc1ccc2c3c1O[C@@H]1C(O)CC[C@]4(O)[C@H](C2)N(C)CC[C@@]314 (stereo partly drawn) [II-40]	1.41 ± 0.13 OD	1.37 ± 0.07 OD	0%	4%	–	–	–	–
COc1cc(Br)c2c(c1O)[C@@]13CCNC(C2)C1CCC(=O)C3 (stereo partly drawn) [Compound I-1]	1.18 ± 0.10 OD	0.21 ± 0.01 OD	17%	85%	–	–	–	–
NC1CC[C@]2(O)[C@@H]3Cc4ccc(O)c5c4[C@]2(CCN3CC2CC2)[C@@H]1O5 (stereo partly drawn) [II-71]	0.19 ± 0.01 OD	0.10 ± 0.00 OD	87%	93%	–	–	–	–
COc1ccc2c3c1O[C@@H]1C(=O)CC[C@@H]4[C@H](C2)N(C(=O)C2CCC2)CC[C@@]314 [II-85]	1.45 ± 0.04 OD	1.45 ± 0.04 OD	-2%	-2%	–	–	–	–
COc1ccc2c3c1O[C@@H]1[C@@H]4CCC5(O4)[C@H](C2)N(CC2CC2)CC[C@@]315 [II-72]	1.10 ± 0.02 OD	0.49 ± 0.01 OD	22%	65%	–	–	–	–
COc1ccc2c(c1)CCN[C@@H]2Cc1ccc(OC)c(O)c1 [III-1]	1.34 ± 0.06 OD	0.67 ± 0.01 OD	–	–	–	–	6%	53%
COc1cc(Br)c2c(c1OC(C)=O)[C@@]13CCN(CC4CC4)C(C2)C1CCC(=O)C3 (stereo partly drawn) [Compound I-12]	1.19 ± 0.07 OD	0.13 ± 0.01 OD	16%	91%	–	–	–	–
COc1ccc2c3c1O[C@@H]1C(=O)CC[C@@H]4[C@H](C2)NCC[C@@]314 [II-12]	1.12 ± 0.08 OD	0.81 ± 0.03 OD	21%	43%	–	–	–	–
COc1ccc2c3c1O[C@@H]1C(NC(C)=O)CC[C@]4(O)[C@H](C2)N(C)CC[C@@]314 (stereo partly drawn) [II-42]	1.00 ± 0.03 OD	0.14 ± 0.02 OD	29%	90%	–	–	–	–
COc1ccc2c3c1O[C@@H]1C(OC(C)=O)=CC[C@]4(O)[C@H](C2)N(C(C)=O)CC[C@@]314 [II-83]	1.40 ± 0.13 OD	1.11 ± 0.09 OD	1%	22%	–	–	–	–
C=CCN1CC[C@@]23c4c5ccc(OC)c4OC2C(O)CCC3C1C5 (stereo partly drawn) [II-19]	1.19 ± 0.03 OD	0.15 ± 0.01 OD	16%	90%	–	–	–	–
COc1cc(-c2ccoc2)c2c3c1O[C@@H]1C(=O)CCC4C(C2)N(CC2CC2)CC[C@]341 (stereo partly drawn) [II-26]	1.08 ± 0.06 OD	0.12 ± 0.00 OD	24%	92%	–	–	–	–
CN(C(=O)/C=C/c1ccoc1)[C@H]1CC[C@]2(O)[C@@H]3Cc4ccc(O)c5c4[C@]2(CC[N+]3([O-])CC2CC2)[C@@H]1O5 (stereo partly drawn) [II-63]	0.23 ± 0.07 OD	0.13 ± 0.01 OD	84%	91%	–	–	–	–
COc1ccc2c(c1O)[C@@]13CCN(C)[C@@H](C2)[C@@]1(O)CCC(=O)C3 [Compound I-25]	1.08 ± 0.05 OD	0.52 ± 0.07 OD	24%	63%	–	–	–	–
C=CCN1CC[C@@]23c4c5ccc(O)c4O[C@@H]2C(=O)CC[C@]3(OC)[C@@H]1C5 [II-70]	1.12 ± 0.04 OD	0.79 ± 0.03 OD	21%	45%	–	–	–	–
COc1ccc2c3c1O[C@@H]1C(=O)CC[C@@H]4[C@H](C2)N(C(=O)c2ccccc2)CC[C@@]314 [II-33]	1.35 ± 0.15 OD	1.37 ± 0.03 OD	5%	3%	–	–	–	–
COc1ccc2c3c1O[C@@H]1C(=O)CC[C@@H]4[C@H](C2)N(C(=O)C2CC2)CC[C@@]314 [II-57]	0.84 ± 0.02 OD	1.15 ± 0.03 OD	–	19%	41%	–	–	–
COc1cc(Br)c2c(c1O)[C@@]13CCN(CC4CC4)C(C2)C1CCC(=O)C3 (stereo partly drawn) [Compound I-2]	1.10 ± 0.06 OD	0.14 ± 0.02 OD	22%	90%	–	–	–	–
OCCNC1CC[C@]2(O)[C@@H]3Cc4ccc(O)c5c4[C@]2(CCN3CC2CC2)[C@@H]1O5 (stereo partly drawn) [II-76]	0.16 ± 0.01 OD	0.10 ± 0.01 OD	89%	93%	–	–	–	–
COC(=O)/C=C/c1cc(OC)c(O)c2c1CC1C3CCC(=O)C[C@@]23CCN1CC1CC1 (stereo partly drawn) [II-14]	1.18 ± 0.05 OD	0.13 ± 0.00 OD	17%	91%	–	–	–	–
COc1ccc2c3c1O[C@@H]1C(N)CC[C@]4(O)[C@H](C2)N(C)CC[C@@]314 (stereo partly drawn) [II-43]	0.10 ± 0.01 OD	0.09 ± 0.00 OD	93%	94%	–	–	–	–
CCCNC1CCC2C3Cc4ccc(OC)c5c4[C@]2(CCN3C)C1O5 (stereo partly drawn) [II-91]	0.12 ± 0.01 OD	0.09 ± 0.01 OD	92%	93%	–	–	–	–
COc1ccc2c3c1O[C@@H]1C(O)CC[C@@H]4[C@H](C2)N(CC2CC2)CC[C@@]314 (stereo partly drawn) [II-17]	1.13 ± 0.10 OD	0.39 ± 0.01 OD	21%	72%	–	–	–	–
COc1ccc2c3c1O[C@@H]1C(O)CC[C@@H]4[C@H](C2)N(CC2CCC2)CC[C@@]314 (stereo partly drawn) [II-28]	1.32 ± 0.08 OD	0.87 ± 0.03 OD	7%	39%	–	–	–	–
COc1ccc2c3c1O[C@@H]1C4(CCC5[C@H](C2)N(CC2CC2)CC[C@]351)OCCO4 (stereo partly drawn) [II-97]	1.22 ± 0.02 OD	1.42 ± 0.07 OD	14%	0%	–	–	–	–
Oc1ccc2c3c1O[C@@H]1[C@H](O)CC[C@]4(O)[C@H](C2)N(CC2CCC2)CC[C@@]314 [II-82]	1.37 ± 0.02 OD	0.49 ± 0.03 OD	4%	65%	–	–	–	–

From US10363251B2, “(+)-morphinans as antagonists of toll-like receptor 9 and therapeutic uses thereof” (Mallinckrodt LLC, priority 2009, dated 2019)
